{"source": "patent US9211311B2", "about": "“Methods for the treatment of neurodegenerative disorders” (priority 2010, dated 2015)", "test_system": "male patients exhibiting PD-induced symptoms", "assay": "Motor portion of the Unified Parkinson's Disease Rating Scale (UPDRS) before and after intranasal oxytocin", "type": "in vivo, human", "settings": "40 IU intranasal oxytocin; for UPDRS total score after oxytocin therapy: off medications, reassessed 45 minutes to one hour after dosing, items rated 0-4, lower = less severe", "procedure": "The participants were in their “off” period, wherein they were taken off their current medications prior to oxytocin therapy. During the experiment, each participant was given 40 IU ([…]) of intranasal oxytocin. The synthetic form of oxytocin was administered by way of an inhaler, such as those used in nasal spray decongestants. Five pumps of the inhaler were dispensed into the left nostril of the participants; the participants were asked to inhale deeply through the nose. Five more pumps were dispensed into the right nostril of the participants and again the participants were asked to inhale deeply. This process was repeated so that, in total, the participants received forty pumps of the inhaler, twenty per nostril.\nImmediately following oxytocin infusion, the participants were given a battery of physical and cognitive tests, lasting about fifteen to twenty minutes. These tests included the Motor portion of the Unified Parkinson's Disease Rating Scale (UPDRS) as well as a cognitive test used to establish the mental and emotional status of the participants. For each test, the participants were rated on a scale of zero to four, with four being the symptoms at its most severe state.\nAfter administration of oxytocin, the participants were asked to wait for 45 minutes to one hour, wherein they passed the time by reading, conversing or simply relaxing. Subsequently, the motor skills of the participants were assessed again using the UPDRS. The administration of the UPDRS the first time was to quantifiably evaluate the patient's symptoms uninfluenced by oxytocin infusion, whereas the second administration of the UPDRS test served to quantifiably assess the motor condition of the patient under the influence of oxytocin.\nThe participants remained under direct supervision throughout the experiment to ensure their comfort and well-being. Once the experimental procedure was completed, the participants were able to leave the clinic and were asked to continue taking their normal medications. The participants were not in any way restricted in their activities for the rest of the day."}
{"smiles": "CC[C@H](C)[C@@H]1NC(=O)[C@H](Cc2ccc(O)cc2)NC(=O)[C@@H](N)CSSC[C@@H](C(=O)N2CCC[C@H]2C(=O)N[C@@H](CC(C)C)C(=O)NCC(N)=O)NC(=O)[C@H](CC(N)=O)NC(=O)[C@H](CCC(N)=O)NC1=O", "note": "[oxytocin]", "values": [{"measurement": "UPDRS total score after oxytocin therapy", "setting": "participant 1, initial total score 24", "result": 17}, {"measurement": "decrease in UPDRS total score after oxytocin therapy", "setting": "participant 1, versus initial total score 24", "result": 30, "unit": "%"}, {"measurement": "UPDRS total score after oxytocin therapy", "setting": "participant 2, initial total score 37.5", "result": 34.5}, {"measurement": "decrease in UPDRS total score after oxytocin therapy", "setting": "participant 2, versus initial total score 37.5", "result": 8, "unit": "%"}, {"measurement": "UPDRS total score after oxytocin therapy", "setting": "participant 3, initial total score 17.5", "result": 9.5}, {"measurement": "decrease in UPDRS total score after oxytocin therapy", "setting": "participant 3, versus initial total score 17.5", "result": 50, "unit": "%"}, {"measurement": "lasting effects due to the administration of oxytocin", "setting": "three male PD patients, observed under supervision throughout the experiment", "result": "not any lasting effects apparent"}]}
